Source: patent publication US12162858B2, “Quinoline derivatives as inhibitors of AXL/MER RTK and CSF1R” (QURIENT CO., LTD., priority 2018, dated 2024)
pKd: −log10 of the molar value. Like-named read-outs stand apart in the source and are kept apart here.

Assays:
Axl = molecular target: T1, Axl (Homo sapiens, UniProt P30530); assay: LanthaScreen Eu kinase binding assay for Axl; details: read-out: Axl kinase binding activity (Kd)
T1 sequence (P30530 26-894): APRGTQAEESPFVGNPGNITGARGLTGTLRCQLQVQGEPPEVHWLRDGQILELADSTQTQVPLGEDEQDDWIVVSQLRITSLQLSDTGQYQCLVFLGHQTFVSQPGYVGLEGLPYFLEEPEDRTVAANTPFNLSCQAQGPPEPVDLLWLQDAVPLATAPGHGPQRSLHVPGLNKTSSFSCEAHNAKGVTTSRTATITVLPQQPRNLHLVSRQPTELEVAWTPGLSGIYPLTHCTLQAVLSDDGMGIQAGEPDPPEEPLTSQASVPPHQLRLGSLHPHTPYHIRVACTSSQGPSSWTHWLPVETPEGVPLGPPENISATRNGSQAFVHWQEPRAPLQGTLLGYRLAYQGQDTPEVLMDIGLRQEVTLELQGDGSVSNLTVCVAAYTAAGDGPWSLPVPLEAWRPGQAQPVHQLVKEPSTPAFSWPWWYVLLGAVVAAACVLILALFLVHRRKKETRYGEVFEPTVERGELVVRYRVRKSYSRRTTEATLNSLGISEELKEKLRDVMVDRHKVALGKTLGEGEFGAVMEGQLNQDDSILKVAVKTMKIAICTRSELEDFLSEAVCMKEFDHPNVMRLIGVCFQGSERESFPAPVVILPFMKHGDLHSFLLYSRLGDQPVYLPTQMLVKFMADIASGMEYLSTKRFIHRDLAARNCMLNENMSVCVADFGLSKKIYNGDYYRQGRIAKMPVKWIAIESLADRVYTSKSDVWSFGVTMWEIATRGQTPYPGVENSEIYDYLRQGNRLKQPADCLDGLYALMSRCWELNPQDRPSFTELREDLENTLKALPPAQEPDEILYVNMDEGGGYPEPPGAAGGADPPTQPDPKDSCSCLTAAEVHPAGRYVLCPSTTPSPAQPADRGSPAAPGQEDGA
Summary of the method: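 Kd values come from control-normalized FRET loss, referenced to DMSO vehicle wells, after 1 h at room temperature. Each compound was serially diluted over eight steps in DMSO and competed against Tracer 236 (Alexa Fluor 647) for the kinase, which was tagged by a Eu anti-GST antibody.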

CSF1R = CSF1R (Homo sapiens, UniProt P07333); assay: KINOMEscan competition binding assay for CSF1R; parameters: DNA tag for qPCR (not a peptide); host or cells: E. coli/T7 phage or HEK-293; details: @ 0.1 uM
Summary of the method: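 Values are either % inhibition at 0.1 uM, relative to DMSO (100% Ctrl) and a control compound (0% Ctrl), or Kd from an 11-point 3-fold series fitted with Hill slope −1. DNA-tagged kinase binds immobilized ligand beads with compound for 1 h at room temperature, and eluted kinase is measured by qPCR.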

[1] = read-out: CSF1R kinase binding activity, Percent (%) inhibition
[2] = read-out: CSF1R kinase binding activity, Range

Sequence of CSF1R (P07333 20-972): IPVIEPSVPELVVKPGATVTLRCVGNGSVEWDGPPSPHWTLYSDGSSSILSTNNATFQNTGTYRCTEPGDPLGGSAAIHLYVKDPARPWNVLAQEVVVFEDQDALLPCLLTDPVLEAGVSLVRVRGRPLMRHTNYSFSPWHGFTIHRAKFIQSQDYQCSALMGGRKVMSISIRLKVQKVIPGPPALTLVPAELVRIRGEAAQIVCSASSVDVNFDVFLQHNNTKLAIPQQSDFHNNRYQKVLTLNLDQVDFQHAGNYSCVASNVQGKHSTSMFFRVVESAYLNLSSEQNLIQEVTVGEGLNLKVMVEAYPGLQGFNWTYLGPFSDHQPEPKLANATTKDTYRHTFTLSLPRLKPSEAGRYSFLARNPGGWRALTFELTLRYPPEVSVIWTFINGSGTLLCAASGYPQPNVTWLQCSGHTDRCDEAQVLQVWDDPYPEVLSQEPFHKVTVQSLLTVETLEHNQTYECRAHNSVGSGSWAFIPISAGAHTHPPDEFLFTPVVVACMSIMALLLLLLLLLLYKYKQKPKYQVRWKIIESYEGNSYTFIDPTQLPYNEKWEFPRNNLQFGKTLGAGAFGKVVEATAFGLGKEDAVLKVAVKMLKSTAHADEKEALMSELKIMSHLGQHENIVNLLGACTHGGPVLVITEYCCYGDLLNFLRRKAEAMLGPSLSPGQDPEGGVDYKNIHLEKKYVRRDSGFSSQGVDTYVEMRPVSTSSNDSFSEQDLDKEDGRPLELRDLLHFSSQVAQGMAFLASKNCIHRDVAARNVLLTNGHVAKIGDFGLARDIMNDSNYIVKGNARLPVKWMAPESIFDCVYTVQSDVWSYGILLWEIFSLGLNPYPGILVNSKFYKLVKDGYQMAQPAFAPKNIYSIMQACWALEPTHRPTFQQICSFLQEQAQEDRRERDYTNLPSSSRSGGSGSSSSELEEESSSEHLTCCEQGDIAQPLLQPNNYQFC

Row | pKd (Axl) | inhibition at 0.1 µM (CSF1R; [1]) [%] | inhibition at 0.1 µM (CSF1R; [2]) [%] | Compound
1 | ≤ 6.30 | 25 | < 50 | COc1cc2nccc(Oc3ccc(NC(=O)c4nn(CC(C)O)cc4OCC4CN(C)C4)nc3)c2cc1OC (stereo not drawn) [Compound 174]
2 | > 7.00 | 97 | ≥ 80 | COc1cc2nccc(Oc3ccc(NC(=O)c4nn(CC(C)O)cc4OCC(F)F)nc3)c2cc1OC (stereo not drawn) [Compound 175]
3 | 6.30 to 7.00 | 40 | < 50 | COc1cc2nccc(Oc3ccc(NC(=O)c4nc(CCC(F)(F)F)oc4CCC4CCC4)nc3)c2cc1OC [Compound 176]
